Measurements reported in ChEMBL document CHEMBL1212738, “Phenotypic and genotypic characterization of Enterobacteriaceae with decreased susceptibility to carbapenems: results from large hospital-based surveillance studies in China” (2010).
In brackets after ≈: the same amount, converted by molar mass.

What was measured:
Enterobacter cloacae [1] = test: Antimicrobial activity against carbapenem-resistant Enterobacter cloacae SZ93 deficient in ompC by CLSI method; format: functional
Klebsiella aerogenes [2] = test: Antimicrobial activity against Enterobacter aerogenes PU41T expressing CTX-M-14, DHA-1, qnrS1 by CLSI method; format: functional
Klebsiella pneumoniae [3] = test: Antimicrobial activity against Klebsiella pneumoniae GZ64 expressing IMP-4, ompK35/36 by CLSI method; format: functional
Klebsiella pneumoniae [4] = test: Antimicrobial activity against Klebsiella pneumoniae ZJ68T expressing CTX-M-15 by CLSI method; format: functional
Klebsiella pneumoniae [5] = test: Antimicrobial activity against carbapenem-resistant Klebsiella pneumoniae GZ84 deficient in SHV-11, aac(6')-Ib-cr, ompK35 by CLSI method; format: functional
Klebsiella pneumoniae [6] = test: Antimicrobial activity against carbapenem-resistant Klebsiella pneumoniae PU5 deficient in SHV-12, DHA-1, aac(6')-Ib-cr, ompK35/36 by CLSI method; format: functional
Escherichia coli [7] = test: Antimicrobial activity against Escherichia coli ZJ86T expressing KPC-2 by CLSI method; format: functional
Enterobacter cloacae [8] = test: Antimicrobial activity against carbapenem-resistant Enterobacter cloacae GX24 deficient in TEM-1, DHA-1, aac(6')-Ib, ompC by CLSI method; format: functional
Klebsiella pneumoniae [9] = test: Antimicrobial activity against Klebsiella pneumoniae ZJ71T expressing KPC-2 by CLSI method; format: functional
Enterobacter cloacae [10] = test: Antimicrobial activity against carbapenem-resistant Enterobacter cloacae GX56 deficient in ompC and expressing low levels of ompF DE by CLSI method; format: functional
Klebsiella pneumoniae [11] = test: Antimicrobial activity against carbapenem-resistant Klebsiella pneumoniae FZ47 deficient in IMP-8, TEM-1, SHV-11, CTX-M-14, qnrB2, aac(6')-Ib, ompK35/36 by CLSI method; format: functional
Citrobacter freundii [12] = test: Antimicrobial activity against Citrobacter freundii SZ63 expressing IMP-4, qnrS1by CLSI method; format: functional
Klebsiella pneumoniae [13] = test: Antimicrobial activity against carbapenem-resistant Klebsiella pneumoniae CY75 deficient in SHV-11, DHA-1, ompK35/36 by CLSI method; format: functional
Klebsiella pneumoniae [14] = test: Antimicrobial activity against carbapenem-resistant Klebsiella pneumoniae PU4 deficient in SHV-1, DHA-1, ompK35/36 by CLSI method; format: functional
Klebsiella aerogenes [15] = test: Antimicrobial activity against carbapenem-resistant Enterobacter aerogenes WH85 deficient in TEM-1, CTX-M-3, ompC/F by CLSI method; format: functional
Klebsiella pneumoniae [16] = test: Antimicrobial activity against Klebsiella pneumoniae GZ64T expressing IMP-4 by CLSI method; format: functional
Klebsiella pneumoniae [17] = test: Antimicrobial activity against Klebsiella pneumoniae PU104T expressing TEM-1, CTX-M-15 by CLSI method; format: functional
Klebsiella pneumoniae [18] = test: Antimicrobial activity against carbapenem-resistant Klebsiella pneumoniae SX67 deficient in SHV-2, CTX-M-14, DHA-1, qnrB6/S1, aac(6')-Ib-cr, ompK35/36 by CLSI method; format: functional
Escherichia coli [19] = test: Antimicrobial activity against Escherichia coli ZJ87T expressing KPC-2 by CLSI method; format: functional
Escherichia coli [20] = test: Antimicrobial activity against Escherichia coli PU60T expressing CMY-2 by CLSI method; format: functional
Klebsiella pneumoniae [21] = test: Antimicrobial activity against carbapenem-resistant Klebsiella pneumoniae ZJ68 deficient in CTX-M-15, ompK35/36 by CLSI method
Klebsiella pneumoniae [22] = test: Antimicrobial activity against carbapenem-resistant Klebsiella pneumoniae PU104 deficient in TEM-1, SHV-11, CTX-M-15, qnrS1, ompK35/36 by CLSI method; format: functional
Citrobacter freundii [23] = test: Antimicrobial activity against Citrobacter freundii SZ62 expressing IMP-4, TEM-1, CMY-2, qnrS1, aac(6')-Ib-cr by CLSI method; format: functional
Escherichia coli [24] = test: Antimicrobial activity against Escherichia coli PU101T expressing CMY-2 by CLSI method; format: functional
Klebsiella pneumoniae [25] = test: Antimicrobial activity against carbapenem-resistant Klebsiella pneumoniae PU8 deficient in SHV-11, DHA-1, aac(6')-Ib-cr, ompK35/36 by CLSI method; format: functional
Enterobacter cloacae [26] = test: Antimicrobial activity against carbapenem-resistant Enterobacter cloacae NJ88 deficient in CTX-M-14, ompC/F by CLSI method; format: functional
Enterobacter cloacae [27] = test: Antimicrobial activity against carbapenem-resistant Enterobacter cloacae NJ91 deficient in CTX-M-14, ompC/F by CLSI method; format: functional
Klebsiella pneumoniae [28] = test: Antimicrobial activity against carbapenem-resistant Klebsiella pneumoniae CY1 deficient in SHV-11, DHA-1, ompK35/36 by CLSI method; format: functional
Klebsiella pneumoniae [29] = test: Antimicrobial activity against Klebsiella pneumoniae WH76 expressing IMP-4, TEM-1, SHV-14, CTX-M-3, qnrS1 by CLSI method; format: functional
Klebsiella pneumoniae [30] = test: Antimicrobial activity against Klebsiella pneumoniae CY1T expressing SHV-11, DHA-1 by CLSI method; format: functional
Klebsiella pneumoniae [31] = test: Antimicrobial activity against carbapenem-resistant Klebsiella pneumoniae PU105 deficient TEM-1, SHV-12, CTX-M-14, DHA-1, qnrB10/B4-like, aac(6')-Ib-cr, ompK35/36 by CLSI method; format: functional
Enterobacter cloacae [32] = test: Antimicrobial activity against carbapenem-resistant Enterobacter cloacae NJ89 deficient in CTX-M-14, ompC/F by CLSI method; format: functional

Row | Compound | MIC (Enterobacter cloacae [1]) | MIC (Klebsiella aerogenes [2]) | MIC (Klebsiella pneumoniae [3]) | MIC (Klebsiella pneumoniae [4]) | MIC (Klebsiella pneumoniae [5]) | MIC (Klebsiella pneumoniae [6]) | MIC (Escherichia coli [7]) | MIC (Enterobacter cloacae [8]) | MIC (Klebsiella pneumoniae [9]) | MIC (Enterobacter cloacae [10]) | MIC (Klebsiella pneumoniae [11]) | MIC (Citrobacter freundii [12]) | MIC (Klebsiella pneumoniae [13]) | MIC (Klebsiella pneumoniae [14]) | MIC (Klebsiella aerogenes [15]) | MIC (Klebsiella pneumoniae [16]) | MIC (Klebsiella pneumoniae [17]) | MIC (Klebsiella pneumoniae [18]) | MIC (Escherichia coli [19]) | MIC (Escherichia coli [20]) | also measured
1 | C[C@@H](O)[C@H]1C(=O)N2C(C(=O)O)=C(S[C@@H]3CN[C@H](C(=O)N(C)C)C3)[C@H](C)[C@H]12 [MEROPENEM] | 0.125 µg/mL (≈ 0.326 µM) | 0.032 µg/mL (≈ 0.0834 µM) | 8 µg/mL (≈ 20.9 µM) | 0.032 µg/mL (≈ 0.0834 µM) | 1 µg/mL (≈ 2.61 µM) | 8 µg/mL (≈ 20.9 µM) | 8 µg/mL (≈ 20.9 µM) | 2 µg/mL (≈ 5.22 µM) | 4 µg/mL (≈ 10.4 µM) | 4 µg/mL (≈ 10.4 µM) | 2 µg/mL (≈ 5.22 µM) | 4 µg/mL (≈ 10.4 µM) | 8 µg/mL (≈ 20.9 µM) | 4 µg/mL (≈ 10.4 µM) | 8 µg/mL (≈ 20.9 µM) | 2 µg/mL (≈ 5.22 µM) | 0.032 µg/mL (≈ 0.0834 µM) | 2 µg/mL (≈ 5.22 µM) | 8 µg/mL (≈ 20.9 µM) | 0.032 µg/mL (≈ 0.0834 µM) | MIC (Klebsiella pneumoniae [21]): 8 µg/mL (≈ 20.9 µM); MIC (Klebsiella pneumoniae [22]): 8 µg/mL (≈ 20.9 µM); MIC (Citrobacter freundii [23]): 4 µg/mL (≈ 10.4 µM); MIC (Escherichia coli [24]): 0.032 µg/mL (≈ 0.0834 µM); MIC (Klebsiella pneumoniae [25]): 8 µg/mL (≈ 20.9 µM)
2 | POLYMYXIN B | > 32 µg/mL | 0.25 µg/mL | 0.5 µg/mL | 0.5 µg/mL | 0.5 µg/mL | 1 µg/mL | 0.5 µg/mL | 2 µg/mL | 0.5 µg/mL | 0.5 µg/mL | 1 µg/mL | 0.5 µg/mL | 1 µg/mL | 0.5 µg/mL | 0.5 µg/mL | 0.5 µg/mL | 0.25 µg/mL | 1 µg/mL | 0.25 µg/mL | 0.25 µg/mL | MIC (Enterobacter cloacae [26]): 0.5 µg/mL; MIC (Enterobacter cloacae [27]): 0.5 µg/mL; MIC (Klebsiella pneumoniae [28]): 1 µg/mL; MIC (Klebsiella pneumoniae [29]): 1 µg/mL; MIC (Klebsiella pneumoniae [30]): 0.25 µg/mL; MIC (Klebsiella pneumoniae [31]): 32 µg/mL; MIC (Enterobacter cloacae [32]): 0.5 µg/mL; MIC (Klebsiella pneumoniae [22]): 0.5 µg/mL; MIC (Citrobacter freundii [23]): 0.5 µg/mL; MIC (Escherichia coli [24]): 0.25 µg/mL; MIC (Klebsiella pneumoniae [25]): 1 µg/mL
